Results: patent US20240197666A1, “DITERPENOID COMPOUNDS THAT ACT ON PROTEIN KINASE C (PKC)” (K-Gen Therapeutics, Inc., priority 2021, published 2024)
Like-named read-outs stand apart in the source and are kept apart here.

Columns and labels:
Hela cells = test: In vitro scratch wound healing assay; assay type: cell-based; conditions: 24h
Protocol: Scratch wound healing assay creates a gap by scratching a confluent monolayer of cells to mimic a wound and then measures the ability of cells to fill up the gap (wound) in the presence of DMSO or test compounds. 1.2-1.5×10^5 Hela cells in 1 mL media RPMI-1640 with 10% FBS were seeded in 24-well plates. Cells were starved for overnight in the same media without FBS when cells became confluent. After starvation, a scratch was made in the middle of the well and the plates were washed three times to remove detached cells. DMSO or different concentrations of compounds were diluted and added to the cells. The assay plates were put into Incucyte S3 and scanned with 4× scanner setting regularly. The imaging results were exported and the wound area was analyzed by ImageJ. Wound healing or closure was calculated by the following formula: wound healing %=(wound area at 0h−wound area at 24h)/wound area 0h*100%. Relative wound healing was calculated by dividing wound healing % of compound treatment to that of DMSO*100%.

[1] = test system: NFκB-driven transcription in HeLa-NFκB luciferase reporter cell line; test: NFκB luciferase reporter assay; conditions: Homo sapiens, HeLa, 16 h, read-out: NFκB-luc HeLa cells EC50 (μM)
human PBMC cells = test: Cytokine/chemokine gene expression in human PBMC (TaqMan); assay type: cell-based; conditions: 4 h;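 for Gene Relative Expression CCL2: 2^-ΔΔCt fold change vs DMSO control normalized to 18S and GAPDH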;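 for Gene Relative Expression GM-CSF: 2^-ΔΔCt fold change vs DMSO control normalized to 18S and GAPDH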;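 for Gene Relative Expression IFN-α: 2^-ΔΔCt fold change vs DMSO control normalized to 18S and GAPDH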;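 for Gene Relative Expression IFNγ: 2^-ΔΔCt fold change vs DMSO control normalized to 18S and GAPDH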
Protocol: Each treatment condition was performed in duplicates.

Panc2.13 (Pancreatic) = test: Proliferation of Panc2.13; assay type: cell-based; conditions: for IC50: read-out: IC50 Panc2.13 (Pancreatic)
In short: (§1)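 Panc2.13 was seeded at 3000 cells/well, KP-4 at 800-1000, HL-60 at 5000 and Namalwa at 5000-10000, then given 3-fold serial dilutions of compound with final DMSO ≤0.25% for 96 h at 37° C. CellTiter Glo luminescence was read and inhibition calculated against DMSO-only wells. IC50 was normalised to comparator K101.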

KP-4 (Pancreatic) = test: Proliferation of KP-4; assay type: cell-based; conditions: read-out: IC50 KP-4 (Pancreatic)
In short: as §1

Compound: CC1=C[C@H]2[C@@]3(O)[C@H](C)C[C@]4(OC(=O)[C@H](N)CCCCCCc5ccccc5)[C@H]([C@@H]3C=C(CO)C[C@]2(O)C1=O)C4(C)C
- Relative wound healing to control (%) (Hela cells; 10 nM): 221%
- Relative wound healing to control (%) (Hela cells; 30 nM): 239%
- Relative wound healing to control (%) (Hela cells; 100 nM): 263%
- EC50 [1]: 0.01 to 0.03 µM
- Gene Relative Expression CCL2 (human PBMC cells; 0.03 μM): 4.55
- Gene Relative Expression GM-CSF (human PBMC cells; 0.03 μM): 1.89
- Gene Relative Expression IFN-α (human PBMC cells; 0.03 μM): 1.66
- Gene Relative Expression IFNγ (human PBMC cells; 0.03 μM): 1.62
- Gene Relative Expression IL-1β (human PBMC cells; 0.03 μM): 0.54
- Gene Relative Expression IL-2 (human PBMC cells; 0.03 μM): 1.71
- Gene Relative Expression IL-6 (human PBMC cells; 0.03 μM): 0.74
- Gene Relative Expression IL-8 (human PBMC cells; 0.03 μM): 0.80
- Gene Relative Expression IL-10 (human PBMC cells; 0.03 μM): 1.27
- Gene Relative Expression IL-12p40 (human PBMC cells; 0.03 μM): 0.74
- Gene Relative Expression IL-12p70 (human PBMC cells; 0.03 μM): 1.02
- Gene Relative Expression IL-13 (human PBMC cells; 0.03 μM): 0.40
- Gene Relative Expression IL-18 (human PBMC cells; 0.03 μM): 0.47
- Gene Relative Expression ISG15 (human PBMC cells; 0.03 μM): 0.97
- Gene Relative Expression MIP1a (CCL3) (human PBMC cells; 0.03 μM): 1.86
- Gene Relative Expression MX1 (human PBMC cells; 0.03 μM): 0.65
- Gene Relative Expression OAS1 (human PBMC cells; 0.03 μM): 0.64
- Gene Relative Expression TNF-α (human PBMC cells; 0.03 μM): 1.38
- Gene Relative Expression CCL2 (human PBMC cells; 0.10 μM): 3.12
- Gene Relative Expression GM-CSF (human PBMC cells; 0.10 μM): 7.74
- Gene Relative Expression IFN-α (human PBMC cells; 0.10 μM): 0.73
- Gene Relative Expression IFNγ (human PBMC cells; 0.10 μM): 3.47
- Gene Relative Expression IL-1β (human PBMC cells; 0.10 μM): 1.58
- Gene Relative Expression IL-2 (human PBMC cells; 0.10 μM): 7.65
- Gene Relative Expression IL-4 (human PBMC cells; 0.10 μM): 1.61
- Gene Relative Expression IL-6 (human PBMC cells; 0.10 μM): 1.14
- Gene Relative Expression IL-8 (human PBMC cells; 0.10 μM): 0.53
- Gene Relative Expression IL-10 (human PBMC cells; 0.10 μM): 0.48
- Gene Relative Expression IL-12p40 (human PBMC cells; 0.10 μM): 0.45
- Gene Relative Expression IL-12p70 (human PBMC cells; 0.10 μM): 0.93
- Gene Relative Expression IL-13 (human PBMC cells; 0.10 μM): 47.45
- Gene Relative Expression IL-18 (human PBMC cells; 0.10 μM): 0.09
- Gene Relative Expression ISG15 (human PBMC cells; 0.10 μM): 1.16
- Gene Relative Expression MIP1a (CCL3) (human PBMC cells; 0.10 μM): 2.39
- Gene Relative Expression MX1 (human PBMC cells; 0.10 μM): 0.72
- Gene Relative Expression OAS1 (human PBMC cells; 0.10 μM): 0.55
- Gene Relative Expression TNF-α (human PBMC cells; 0.10 μM): 4.04
- Gene Relative Expression CCL2 (human PBMC cells; 0.3 μM): 2.09
- Gene Relative Expression GM-CSF (human PBMC cells; 0.3 μM): 10.50
- Gene Relative Expression IFN-α (human PBMC cells; 0.3 μM): 0.95
- Gene Relative Expression IFNγ (human PBMC cells; 0.3 μM): 18.57
- Gene Relative Expression IL-1β (human PBMC cells; 0.3 μM): 1.53
- Gene Relative Expression IL-2 (human PBMC cells; 0.3 μM): 3.41
- Gene Relative Expression IL-4 (human PBMC cells; 0.3 μM): 2.57
- Gene Relative Expression IL-6 (human PBMC cells; 0.3 μM): 4.85
- Gene Relative Expression IL-8 (human PBMC cells; 0.3 μM): 0.59
- Gene Relative Expression IL-10 (human PBMC cells; 0.3 μM): 0.06
- Gene Relative Expression IL-12p40 (human PBMC cells; 0.3 μM): 0.69
- Gene Relative Expression IL-12p70 (human PBMC cells; 0.3 μM): 0.61
- Gene Relative Expression IL-13 (human PBMC cells; 0.3 μM): 78.90
- Gene Relative Expression IL-18 (human PBMC cells; 0.3 μM): 0.04
- Gene Relative Expression ISG15 (human PBMC cells; 0.3 μM): 1.14
- Gene Relative Expression MIP1a (CCL3) (human PBMC cells; 0.3 μM): 3.37
- Gene Relative Expression MX1 (human PBMC cells; 0.3 μM): 0.57
- Gene Relative Expression OAS1 (human PBMC cells; 0.3 μM): 0.42
- Gene Relative Expression TNF-α (human PBMC cells; 0.3 μM): 4.13
- ratio (IC50 of K101)/(IC50 of compound) Panc2.13 (Panc2.13 (Pancreatic)): 13.4
- IC50 (Panc2.13 (Pancreatic); 96 h): 0.1 to 0.6 µM
- IC50 (KP-4 (Pancreatic)): 0.03 to 0.06 µM

Compound: CC1=C[C@H]2[C@@]3(O)[C@H](C)C[C@]4(OC(=O)[C@@H](N)CCCCCCc5ccccc5)[C@H]([C@@H]3C=C(CO)C[C@]2(O)C1=O)C4(C)C
- Relative wound healing to control (%) (Hela cells; 3 nM): 162%
- Relative wound healing to control (%) (Hela cells; 10 nM): 237%
- Relative wound healing to control (%) (Hela cells; 30 nM): 267%
- EC50 [1]: 0.001 to 0.01 µM
- Gene Relative Expression CCL2 (human PBMC cells; 0.01 μM): 1.81
- Gene Relative Expression GM-CSF (human PBMC cells; 0.01 μM): 1.00
- Gene Relative Expression IFN-α (human PBMC cells; 0.01 μM): 0.73
- Gene Relative Expression IFNγ (human PBMC cells; 0.01 μM): 1.46
- Gene Relative Expression IL-1β (human PBMC cells; 0.01 μM): 0.38
- Gene Relative Expression IL-2 (human PBMC cells; 0.01 μM): 1.32
- Gene Relative Expression IL-6 (human PBMC cells; 0.01 μM): 0.57
- Gene Relative Expression IL-8 (human PBMC cells; 0.01 μM): 0.44
- Gene Relative Expression IL-10 (human PBMC cells; 0.01 μM): 1.59
- Gene Relative Expression IL-12p40 (human PBMC cells; 0.01 μM): 0.34
- Gene Relative Expression IL-12p70 (human PBMC cells; 0.01 μM): 1.05
- Gene Relative Expression IL-13 (human PBMC cells; 0.01 μM): 0.37
- Gene Relative Expression IL-18 (human PBMC cells; 0.01 μM): 0.63
- Gene Relative Expression ISG15 (human PBMC cells; 0.01 μM): 0.94
- Gene Relative Expression MIP1a (CCL3) (human PBMC cells; 0.01 μM): 1.29
- Gene Relative Expression MX1 (human PBMC cells; 0.01 μM): 0.77
- Gene Relative Expression OAS1 (human PBMC cells; 0.01 μM): 0.85
- Gene Relative Expression TNF-α (human PBMC cells; 0.01 μM): 1.34
- Gene Relative Expression CCL2 (human PBMC cells; 0.03 μM): 6.53
- Gene Relative Expression GM-CSF (human PBMC cells; 0.03 μM): 1.88
- Gene Relative Expression IFN-α (human PBMC cells; 0.03 μM): 1.21
- Gene Relative Expression IFNγ (human PBMC cells; 0.03 μM): 1.49
- Gene Relative Expression IL-1β (human PBMC cells; 0.03 μM): 0.94
- Gene Relative Expression IL-2 (human PBMC cells; 0.03 μM): 3.59
- Gene Relative Expression IL-4 (human PBMC cells; 0.03 μM): 1.19
- Gene Relative Expression IL-6 (human PBMC cells; 0.03 μM): 1.23
- Gene Relative Expression IL-8 (human PBMC cells; 0.03 μM): 0.66
- Gene Relative Expression IL-10 (human PBMC cells; 0.03 μM): 0.86
- Gene Relative Expression IL-12p40 (human PBMC cells; 0.03 μM): 0.38
- Gene Relative Expression IL-12p70 (human PBMC cells; 0.03 μM): 0.96
- Gene Relative Expression IL-13 (human PBMC cells; 0.03 μM): 5.87
- Gene Relative Expression IL-18 (human PBMC cells; 0.03 μM): 0.19
- Gene Relative Expression ISG15 (human PBMC cells; 0.03 μM): 0.97
- Gene Relative Expression MIP1a (CCL3) (human PBMC cells; 0.03 μM): 1.67
- Gene Relative Expression MX1 (human PBMC cells; 0.03 μM): 0.65
- Gene Relative Expression OAS1 (human PBMC cells; 0.03 μM): 0.55
- Gene Relative Expression TNF-α (human PBMC cells; 0.03 μM): 2.91
- Gene Relative Expression CCL2 (human PBMC cells; 0.10 μM): 0.40
- Gene Relative Expression GM-CSF (human PBMC cells; 0.10 μM): 21.01
- Gene Relative Expression IFN-α (human PBMC cells; 0.10 μM): 0.80
- Gene Relative Expression IFNγ (human PBMC cells; 0.10 μM): 11.33
- Gene Relative Expression IL-1β (human PBMC cells; 0.10 μM): 3.00
- Gene Relative Expression IL-2 (human PBMC cells; 0.10 μM): 4.98
- Gene Relative Expression IL-4 (human PBMC cells; 0.10 μM): 2.78
- Gene Relative Expression IL-6 (human PBMC cells; 0.10 μM): 6.15
- Gene Relative Expression IL-8 (human PBMC cells; 0.10 μM): 0.44
- Gene Relative Expression IL-10 (human PBMC cells; 0.10 μM): 0.12
- Gene Relative Expression IL-12p70 (human PBMC cells; 0.10 μM): 0.74
- Gene Relative Expression IL-13 (human PBMC cells; 0.10 μM): 121.59
- Gene Relative Expression IL-18 (human PBMC cells; 0.10 μM): 0.05
- Gene Relative Expression ISG15 (human PBMC cells; 0.10 μM): 1.57
- Gene Relative Expression MIP1a (CCL3) (human PBMC cells; 0.10 μM): 4.95
- Gene Relative Expression MX1 (human PBMC cells; 0.10 μM): 1.06
- Gene Relative Expression OAS1 (human PBMC cells; 0.10 μM): 0.71
- Gene Relative Expression TNF-α (human PBMC cells; 0.10 μM): 6.52
- ratio (IC50 of K101)/(IC50 of compound) Panc2.13 (Panc2.13 (Pancreatic)): 57.3
- IC50 (Panc2.13 (Pancreatic)): 0.01 to 0.03 µM
- IC50 (KP-4 (Pancreatic)): 0.001 to 0.01 µM
